B1: SGN-CD19A: CD19-directed antibody-drug conjugate: humanized antibody hBU12, maleimidocaproyl linker, monomethyl auristatin F (MMAF); average four drugs per antibody (conjugate)
VL: EIVLTQSPATLSLSPGERATLSCSASSSVSYMHWYQQKPGQAPRLLIYDTSKLASGIPARFSGSGSGTDFTLTISSLEPEDVAVYYCFQGSVYPFTFGQGTKLEIKR
VH: QVQLQESGPGLVKPSQTLSLTCTVSGGSISTSGMGVGWIRQHPGKGLEWIGHIWWDDDKRYNPALKSRVTISVDTSKNQFSLKLSSVTAADTAVYYCARMELWSYYFDYWGQGTLVTVSS

What was measured:
[1] = system: ALL patient donor 06343 xenograft; test: Disease burden (blast cells) in bone marrow, patient-derived ALL xenograft donor 06343; type: in vivo, mouse; settings: for Disease Burden in Bone Marrow, CD45/10% Mean: NOD-scid IL2Rγ null mice, dosed at 38% blasts in sentinels, bone marrow counts day 14 post-dose
From the text: Establishment of patient-derived xenografts: NOD-scid IL2Rγ null mice were used as hosts for patient-derived xenografts. Twenty-four hours prior to cell implant, mice received 1.0 Gy irradiation using a Radsource 2000 irradiator (Radsource technologies, Suwanee, Ga.). Frozen bone marrow isolates of mononuclear cells from patients with acute lymphoblastic leukemia were obtained from […] (Alameda, Calif.). Cells were thawed in a warm water bath. After thaw, RPMI-1640 media was slowly added to the bone marrow isolate suspension. The cells were washed with PBS and centrifuged to remove DMSO in freezing media. After centrifugation, the cells were suspended in PBS. For, implantation, 3.6×10^6 cells were injected into the tail vein of female NOD-scid IL2Rγ null mice designated as donor, or passage 0 mice. Approximately 7 weeks after implant, mice were euthanized. Bone marrow and spleen were collected using sterile technique. Spleens were mechanically disrupted using a sterile syringe end and mesh filter. Connective tissues from spleens were filtered out using 40um filters. Splenocytes and bone marrow cells were treated with red blood cell buffer lysis (BD lysis buffer, BD biosciences, San Jose, Calif.) for 15 minutes at room temperature. A sample of the cells was utilized for confirmation of engraftment. The percentage of blast cells was determined by the number of CD45 FITC, CD19 PE-Cy.5 (BD Biosciences, San Jose, Calif.) CD10 APC (Biolegend, San Diego, Calif.) triple positive cells via flow cytometry (FACScalibur, BD Biosciences, San Jose, Calif.). The majority of the cells (passage 1) were placed into freezing media (90% Heat inactivated fetal bovine serum and 10% DMSO). Subsequent xenograft experiments utilized passage 1 cells. Cells were implanted in the same manner done for donor mice (passage 0 mice). Starting 14-21 days post implant, 2-3 sentinel mice were euthanized to determine the percentage blast cells in the bone marrow. Once the percentage of blast cells was at 25-50% of the bone marrow mononuclear cells mice were randomly placed into treatment groups. SGN-CD19A and non-specific ADC (also called h00-1269) were administered as a single intraperitoneal injection at 1.0, 3.0, or 10.0 mg/kg dose. Cyclophosphamide at 15 or 30 mg/kg (Baxter, Deefield, Ill.), Vincristine at 0.188 or 0.375 mg/kg (Hospira, Lake Forest, Ill.), and Doxorubicin at 1.24 or 2.475 mg/kg (Pfizer, NY, NY) were combined and administered as a single dose via intravenous injection into the lateral tail vein. Dexamethasone at 7.5 or 15 mg/kg (APP Pharmaceuticals, Schaumberg, Ill.) was given daily via intraperitoneal injection for five days. At pre-determined times post treatment, mice were euthanized for collection of bone marrow and determination of blast cell percentage via flow cytometry.
The response of human patient-derived ALL cells to single agent SGN-CD19A or CVAD was determined in mouse xenograft models. Bone marrow isolates from patients with ALL (donor 06343 and donor 90811) were used to establish xenografts in NOD-scid IL2Rgamma^null mice. After engraftment, patient-derived bone marrow cells were frozen and are referred to as passage 1 cells. Passage 1 cells were implanted into mice and assessed for presence of blast cells (CD45/CD10/CD19 positive cells). After blast cells were between 25-50% of the bone marrow, mice were placed in treatment groups (n=3 mice per time point). Mice were given either 1, 3, or 10 mg/kg of SGN-CD19A or 10 mg/kg of a non-specific ADC conjugated to MMAF (also called h00-1269). A maximum tolerated dose (MTD) of CVAD had previously been determined in the same mouse strain. Mice were given either CVAD at the MTD or at 50% of the MTD.
The response of human patient-derived ALL cells to the combination of SGN-CD19A and CVAD was also determined in the mouse xenograft model. Patient samples were engrafted as described above.

NALM6 cells = test: In vitro cytotoxicity (CellTiter-Glo) on NALM6 cells; type: cell-based; settings: 96 hours, minimally/low effective dose used for the combination
Description: Isobolograms: Cells were plated at 5000 per well in 384 well plates using Fluid-X liquid handler (Fluid-X, Boston, Mass.). SGN-CD19A and Vincristine were plated separately and serial diluted in 2×96 well plates per drug. SGN-CD19A and Vincristine were added to 384 well plates, either alone or in combination at range above and below the IC50 for each single agent using the Hamilton STAR automation robotics (Hamilton, Reno, Nev.). Cells were kept at 37° C. for 96 hours. Cell viability readout was performed using the CellTiter-Glo assay (Promega, Madison, Wis.). Luminescence was measured using the Envision plate reader (Perkin Elmer, Waltham, Mass.). Activity was determined by the luminescence of treated cells compared to that of untreated cells.
To verify the results of the in vivo SGN-CD19A plus vincristine or SGN-CD19A plus doxorubicin combinations, in vitro cytotoxicity experiments were performed. […] The concentration of each agent was serially diluted to include doses that would have no cytotoxicity to doses that would kill all cells. […] NALM-6 cells were also incubated with a combination of SGN-CD19A and doxorubicin, in a similar manner.

| Molecule | Disease Burden in Bone Marrow, CD45/10% Mean [1] | cell kill as a single agent (NALM6 cells) | single agent dose response, blast cells in the bone marrow ([1]; SGN-CD19A 1, 3 or 10 mg/kg, CVAD at MTD or 50% of MTD, FIGS. 2A, 2C) |
| --- | --- | --- | --- |
| O=P1(N(CCCl)CCCl)NCCCO1 (centres unmarked) [Cyclophosphamide] | 90% | – | – |
| C[C@@H]1C[C@H]2[C@@H]3CCC4=CC(=O)C=C[C@]4(C)[C@@]3(F)[C@@H](O)C[C@]2(C)[C@@]1(O)C(=O)CO [Dexamethasone] | 82.5% | – | – |
| COc1cccc2c1C(=O)c1c(O)c3c(c(O)c1C2=O)C[C@@](O)(C(=O)CO)C[C@@H]3O[C@H]1C[C@H](N)[C@H](O)[C@H](C)O1 [Doxorubicin] | 69.2% | approximately 20% | – |
| CC[C@]1(O)C[C@H]2CN(CCc3c([nH]c4ccccc34)[C@@](C(=O)OC)(c3cc4c(cc3OC)N(C=O)[C@H]3[C@@](O)(C(=O)OC)[C@H](OC(C)=O)[C@]5(CC)C=CCN6CC[C@]43[C@@H]65)C2)C1 [Vincristine] | 69.1% | approximately 5% | – |
| B1 | 92.5% | – | decreasing amounts of blast cells in the bone marrow |
